Test [1] deals with PD-1/PD-L1 (Homo sapiens, UniProt Q9NZQ7). In words: PD-1/PD-L1 biochemical protein-protein interaction assay (ALPHA). The note with it: Table 1a; 5 nM His tagged PD-L1, 5 nM biotinylated PD-1, 2 hours at 25° C.; read-out: ALPHA-LISA IC50. The test is classed as binding. The protocol:
Compounds were tested in protein-protein interaction assay to determine if they can specifically block the interaction between the extracellular domains of PD-1/PD-L1. Binding of the protein pairs is measured using a bead based amplified luminescent proximity homogeneous assay (ALPHA) platform. Binding of each protein pair results in proximity of the donor and acceptor beads which leads to an increase in ALPHA signal. Assays are performed in 50 mM Tris (pH 7.4), 0.0015% Triton X-100, 0.1% BSA. Final protein concentration in the assays were 5 nM (His tagged PD-L1), 5 nM (biotinylated PD-1), 10 μg/ml ALPHA assay acceptor beads, 10 μg/ml ALPHA assay donor beads. After an assay reaction time of 2 hours at 25° C., binding was measured. The specificity of the binding was determined by testing the compounds in an assay with an irrelevant protein that is both His tagged and biotinylated. The final protein concentration used in the assay was 5 nM, 10 μg/ml ALPHA assay acceptor beads, 10 μg/ml ALPHA assay donor beads. After an assay reaction time of 2 hours at 25° C., binding was measured. IC50 values were calculated from the fit of the dose-response curves to a four-parameter equation.

The conditions of test [2]: across the 27 clinical trials analyzed (Tie Y et al., 2016); cited from earlier work.

Chain of PD-1/PD-L1 (Q9NZQ7 19-238 limits assumed): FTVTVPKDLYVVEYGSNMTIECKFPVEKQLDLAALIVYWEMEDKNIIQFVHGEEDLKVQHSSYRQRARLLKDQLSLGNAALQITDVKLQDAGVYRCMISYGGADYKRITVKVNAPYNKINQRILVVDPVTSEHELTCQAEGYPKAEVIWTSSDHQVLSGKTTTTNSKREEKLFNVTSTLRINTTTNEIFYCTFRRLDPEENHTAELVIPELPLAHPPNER

Turning to `N#Cc1cccc(COc2cc(OCc3cccn(-c4ccc5c(c4)OCCO5)c3=O)c(Cl)cc2CN[C@H](CO)C(=O)O)c1` [Compound 202, (5-chloro-2-((3-cyanobenzyl)oxy)-4-((1-(2,3-dihydrobenzo[b][1,4]dioxin-6-yl)-2-oxo-1,2-dihydropyridin-3-yl)methoxy)benzyl)-D-serine], the IC50 in test [1] was determined as 200 nM.
For the compound “Opdivo: Opdivo® (Nivolumab), given as example of PD-L1/PD-1 antagonist therapy validated in clinical trials”, in test [2], the “objective response rate (ORR)” value was 26%.

The values above are taken from patent publication US12624022B2, “Heterocyclic immunomodulators as PDL1 checkpoint inhibitor” (Janssen Sciences Ireland Unlimited Company, priority 2019, dated 2026).
